Measured values published in patent publication US10258635B2, “Formulations and compositions of vitamin D analogs for treating and preventing cancer and other diseases” (priority 2013, dated 2019).
Entries after “also recorded” stand apart in the source; their conditions may differ.

How the values were obtained:
24-OHase = assay: Message for 24-OHase in LNCaP cells; format: cell-based
[1] = Stability study in liver homogenate; format: in vitro ADME, mouse; conditions: 37° C., 60 minutes, HPLC
Protocol: Pieces of liver, obtained from normal mice were minced and homogenized in phosphated saline with a polytron. […] The organic layer was dried in a stream of nitrogen and the residue was analyzed by HPLC (as above).

VDR = VDR (Homo sapiens, UniProt P11473); assay: Covalent linking to and activation of VDR; format: biochemical; conditions: covalent link in ligand-binding pocket via a cysteine residue
VDR, sequence (P11473 whole entry): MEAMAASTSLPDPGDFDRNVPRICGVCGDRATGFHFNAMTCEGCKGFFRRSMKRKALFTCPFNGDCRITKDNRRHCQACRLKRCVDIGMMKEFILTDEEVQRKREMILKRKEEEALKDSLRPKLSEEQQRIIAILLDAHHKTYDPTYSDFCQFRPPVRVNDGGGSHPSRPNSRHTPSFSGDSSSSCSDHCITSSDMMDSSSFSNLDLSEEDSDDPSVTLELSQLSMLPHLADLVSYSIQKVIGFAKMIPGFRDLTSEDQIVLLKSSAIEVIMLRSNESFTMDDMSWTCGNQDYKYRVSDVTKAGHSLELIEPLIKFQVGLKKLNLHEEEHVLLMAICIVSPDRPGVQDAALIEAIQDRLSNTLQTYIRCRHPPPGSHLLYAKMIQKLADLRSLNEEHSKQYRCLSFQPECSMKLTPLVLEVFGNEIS

[2] = Maximum tolerated dose of AMPI-109 in DU-145 tumor-bearing SCID mice; format: in vivo
Protocol: DU-145 prostate cancer cells (ATCC, Manassas, Va.) were grown in culture, and then approximately 5 million cells/animal was injected under the skin in the flank area of SCID mice (Charles River). Tumors grew in 2-3 weeks, and when they reached a size of approximately 1 cm^3, they were injected with 0.1, 0.5 and 1 μg/kg dose of AMPI-109 (in 5% […] in sesame oil) intraperitoneally. Dosing levels were limited by concentrations and volumes. Each group had six mice. Dosing was carried out every third day and weight of each mouse was recorded.

[3] = test system: RCC 54 kidney cancer cells; conditions: 7.5×10^−7 to 10^−6M
Protocol: In a typical assay cells were grown to 50-60% confluence in 24-well plates in respective media containing 5% FBS, and serum starved for 20 hours, followed by treatment with various agents (in 0.1% ethanolic solution) or ethanol (vehicle) in serum-containing medium for 16 hours. After the treatment media was removed from the wells and replaced with media containing ^3H-thymidine (Sigma, 0.1 μCi) per well, and the cells were incubated for 3 hours at 37° C. After this period media was removed by aspiration and the cells were washed thoroughly (3×0.5 ml) with PBS. Ice-cold 5% perchloric acid solution (0.5 ml) was added to each well and the cells were incubated on ice for 20 minutes. After this incubation, perchloric acid was removed by aspiration, replaced with 0.5 ml of fresh perchloric acid solution and the cells were incubated at 70° C. for 20 minutes. Solution from each well was mixed with scintillation fluid and counted in a liquid scintillation counter. There were eight (8) wells per sample; statistics was carried out by Student's t test.

DU-145 cells = assay: 3H-thymidine incorporation assay in DU-145 cells; format: cell-based, human
normal kidney cells = assay: 3H-thymidine incorporation assay in normal kidney cells; format: cell-based; conditions: 10^−6M
[4] = test system: LNCaP, PC-3 and DU-145 prostate cancer cells; assay: Anti-proliferation and apoptosis in prostate cancer cells (summary); format: cell-based
[5] = test system: DU-145 human prostate cancer cells; assay: DU-145 xenograft efficacy, p.o. administration (Example 11); format: in vivo, nude mice
[6] = test system: DU-145 human prostate cancer cells; assay: DU-145 xenograft, AMPI-109 vs APH-0701 (Example 12); format: in vivo, athymic mice; conditions: 0.5 μg/Kg
Protocol: Male, athymic mice (average weight 20 gm) were fed normal rat chow and water ad libitum. They were inoculated with DU-145 cells (5×10^6 cells, dispersed in 100 μl PBS) in the flank.

[7] = test system: DU-145 human prostate cancer cells; assay: DU-145 xenograft efficacy, i.p. administration (Example 10); format: in vivo, athymic mice
Protocol: Male, athymic mice (average weight 20 gm) were fed normal rat chow and water ad libitum. They were inoculated with DU 145 cells, grown in culture in their flanks under light anesthesia. When the tumor size grew to approximately 100 mm^3 the animals were randomized into groups of ten (10) tumor-bearing animals, and they were given AMPI-109 (0.1 μg/kg), calcitriol (0.5 and 1 μg/kg), and vehicle (5% DMA in sesame oil) by intraperitoneal injection (i.p.) on every third day (when body weights were determined); and one group was left untreated. Treatment started on day 11 and stopped on day 30; and they were left untreated for two (2) additional days when they were sacrificed.

Serum-stability study = format: in vitro ADME; conditions: pooled human serum, 37° C., 60 minutes, HPLC
Protocol: The organic layer was dried in a stream of nitrogen and the residue was analyzed by HPLC (5% H2O— 95% methanol 1.5 ml/min, 265 nm detection, Agilent C18 column).

[8] = test system: LNCaP prostate cancer cells; assay: 3H-thymidine incorporation assay, APH-0701 vs naked AMPI-109; format: cell-based
Protocol: Antiproliferative activities in these cells were measured by ^3H-thymidine incorporation assay.

## C=C1/C(=C\C=C2/CCC[C@@]3(C)C2CC[C@@H]3C(C)CCCC(C)(C)O)C[C@@H](OC(=O)CBr)CC1O (stereo partly drawn) [AMPI-109, 1α,25-dihydroxyvitamin D3-3-bromoacetate]
24-OHase
  message for 24-OHase: up regulated
[1]
  stability in mouse liver homogenate: corresponds to the peak of a standard sample
VDR
  VDR activation: constitutively activated VDR
[2]; 1 μg/kg i.p. every third day
  mortality: All mice in the 1 μg/Kg dose died after three dosing
[2]; i.p., every third day, based on dosing
  relative MTD: ≤ 3 µg/kg
[3]
  reduction of proliferation of RCC 54 kidney cancer cells: > 95%
DU-145 cells; 2.5×10^−7M to 10^−6M, 20 hours
  antiproliferative effect in DU-145 cells: strong and dose-dependent antiproliferative effect
DU-145 cells; 10^−6M, separate experiment
  anti-proliferative effect in DU-145 cells: strong anti-proliferative effect; also recorded: significantly stronger antiproliferative agent than EB-1089
Normal kidney cells
  impact on normal kidney cells versus control: neither Calcitriol nor AMPI-109 had any statistically different impact
[4]
  apoptosis: induced apoptosis
[4]; mole-per-mole basis
  anti-proliferative strength relative to calcitriol: significantly stronger anti-proliferative agent than calcitriol
[5]; 0.5 μg/kg p.o. oral gavage
  anti-tumor effect: strong anti-tumor effect
[5]; mouse, in vivo
  potency in p.o.-mode relative to i.p.-mode (times less potent): 5 times
[5]; p.o., calcitriol 0.5 μg/kg and 1.0 μg/kg, AMPI-109 0.5 μg/kg
  body weight: did not cause any significant change in body weight
[6]
  gross body-weights: not significantly different from control animals
[6]; every third day, day 7 to 42
  average size of tumors at the end of the experiment: ~475 mm^3
[7]; 0.1 μg/kg i.p.
  body weight: some reduction in body weight
[7]; 0.1 μg/kg i.p. every third day, day 11 to 30
  anti-tumor effect: strong anti-tumor effect
[7]; i.p., weight basis
  potency relative to calcitriol in reducing tumor-size: approximately 5 times
Serum-stability study
  stability in human serum: corresponds to the peak of a standard sample
[8]
  growth of LNCaP cells: almost completely inhibited the growth of LNCaP cells
